The inhibition is the relative decrease from the control value, in per cent. A lower inhibition goes with a response near the control.

For test [1], the system named is LNCaP C4-2. Kind of test: Inhibition of HIF1alpha production in c4-2 cells at 10 uM after 24 hrs relative to control. It is filed as functional. To be noted: Homo sapiens, LNCaP C4-2, 24 h.
Test [2] deals with LNCaP C4-2. Kind of test: Inhibition of HIF1-alpha production in c4-2 cells at 20 nM after 24 hrs relative to control. Type of test: functional. To be noted: Homo sapiens, LNCaP C4-2, 24 h.

On to `CC[C@@]1(O)C(=O)OCc2c1c(NCc1cccc(F)c1)c1n(c2=O)Cc2cc3ccccc3nc2-1`, for which 10 µM produced 0% inhibition in test [1].
Still for that read-out and setting: the same measure for `CC[C@@]1(O)C(=O)OCc2c1c(NCc1ccc(F)cc1)c1n(c2=O)Cc2cc3ccccc3nc2-1`: 40%; for `CC[C@@]1(O)C(=O)OCc2c1c(NCCF)c1n(c2=O)Cc2cc3ccccc3nc2-1`: 88%.
With `CO[C@H]1C[C@@H]2CC[C@@H](C)[C@@](O)(O2)C(=O)C(=O)N2CCCC[C@H]2C(=O)O[C@H]([C@H](C)C[C@@H]2CC[C@@H](O)[C@H](OC)C2)CC(=O)[C@H](C)/C=C(\C)[C@@H](O)[C@@H](OC)C(=O)[C@H](C)C[C@H](C)/C=C/C=C/C=C/1C` [SIROLIMUS], the inhibition at 0.02 µM in test [2] worked out at 35%.
With `CC[C@@]1(O)C(=O)OCc2c1cc1n(c2=O)Cc2cc3c(CN(C)C)c(O)ccc3nc2-1` [TOPOTECAN], at 10 µM the inhibition in test [1] was 69%.
The same measure, in the same setting: the same measure for `CCCNc1c2c(c(=O)n3c1-c1nc4ccccc4cc1C3)COC(=O)[C@]2(O)CC`: 76%; for `CC[C@@]1(O)C(=O)OCc2c1cc1n(c2=O)Cc2cc3ccccc3nc2-1` [CAMPTOTHECIN]: 69%; for `CC[C@@]1(O)C(=O)OCc2c1c(NCc1ccc(OC)cc1)c1n(c2=O)Cc2cc3ccccc3nc2-1`: 9%.

For the origin of these results see ChEMBL document CHEMBL1139736, “Microwave expedited synthesis of 5-aminocamptothecin analogs: Inhibitors of hypoxia inducible factor HIF-1alpha” (2006).
